Results reported in PubChem BioAssay AID1745844 (Carcinogenic Potency Database (CPDB), 2022).
Several values for one entry are separate records, joined by “and”; a condition that tells them apart may be missing. Equal entries are not always repeated. Activity calls are given as the source filed them. No rule for the calls is given here.

Test system: rodent lifetime carcinogenesis bioassay, tumor incidence TD50
Assay: carcinogenic potency in animals, long-term in vivo studies, CPDB compilation (AID 1745844)
[1] = rat, strain Fischer 344, females, by gavage, site: any site (literature study), lesion: several types, types named in the paper, dosed 103 weeks, study length 104 weeks

S=C(S)NCCNC(=S)S
carcinogen call (mouse, strain B6AKF1, females, oral dosing, site: any site (literature study), lesion: several types, types named in the paper, dosed 76 weeks, study length 76 weeks): negative (inactive)
carcinogen call (mouse, strain B6AKF1, females, oral dosing, site: liver, lesion: hepatoma, dosed 76 weeks, study length 76 weeks): negative (inactive)
carcinogen call (mouse, strain B6AKF1, females, oral dosing, site: lung, lesion: several types, types named in the paper, dosed 76 weeks, study length 76 weeks): negative (inactive)
carcinogen call (mouse, strain B6AKF1, males, oral dosing, site: any site (literature study), lesion: several types, types named in the paper, dosed 76 weeks, study length 76 weeks): negative (inactive)
carcinogen call (mouse, strain B6AKF1, males, oral dosing, site: liver, lesion: hepatoma, dosed 76 weeks, study length 76 weeks): negative (inactive)
carcinogen call (mouse, strain B6AKF1, males, oral dosing, site: lung, lesion: adenoma, dosed 76 weeks, study length 76 weeks): negative (inactive)
carcinogen call (mouse, strain B6C3F1, females, oral dosing, site: any site (literature study), lesion: several types, types named in the paper, dosed 76 weeks, study length 76 weeks): negative (inactive)
carcinogen call (mouse, strain B6C3F1, females, oral dosing, site: liver, lesion: hepatoma, dosed 76 weeks, study length 76 weeks): negative (inactive)
carcinogen call (mouse, strain B6C3F1, females, oral dosing, site: lung, lesion: adenoma, dosed 76 weeks, study length 76 weeks): negative (inactive)
carcinogen call (mouse, strain B6C3F1, males, oral dosing, site: any site (literature study), lesion: several types, types named in the paper, dosed 76 weeks, study length 76 weeks): negative (inactive)
TD50 (mouse, strain B6C3F1, males, oral dosing, site: liver, lesion: hepatoma, dosed 76 weeks, study length 76 weeks): 866 mg/kg/day (inactive)
carcinogen call (mouse, strain B6C3F1, males, oral dosing, site: lung, lesion: adenoma, dosed 76 weeks, study length 76 weeks): negative (inactive)

CCCCCC(/C=C/C=C\CCCCCCCC(=O)OC)OO (configuration not stated)
carcinogen call (rat, strain Wistar, males, by gavage, site: gastrointestinal tract, lesion: several types, types named in the paper, dosed 30 weeks, study length 87 weeks): negative (inactive)
carcinogen call (rat, strain Wistar, males, by gavage, site: liver, lesion: one or several types, types not named, dosed 30 weeks, study length 87 weeks): negative (inactive)

Nc1cccc2c(N)cccc12
TD50 (mouse, strain B6C3F1, females, in feed, site: any site (literature study), lesion: several types, types named in the paper, dosed 103 weeks, study length 105 weeks): 223 mg/kg/day
TD50 (mouse, strain B6C3F1, females, in feed, site: liver + lung + thyroid gland, lesion: hepatocellular adenoma + hepatocellular carcinoma + alveolar/bronchiolar adenoma + alveolar/bronchiolar carcinoma + c-cell adeno, dosed 103 weeks, study length 105 weeks): 66.6 mg/kg/day
TD50 (mouse, strain B6C3F1, females, in feed, site: liver, lesion: hepatocellular adenoma + hepatocellular carcinoma + neoplastic nodule, dosed 103 weeks, study length 105 weeks): 129 mg/kg/day
TD50 (mouse, strain B6C3F1, females, in feed, site: liver, lesion: hepatocellular adenoma + hepatocellular carcinoma, dosed 103 weeks, study length 105 weeks): 129 mg/kg/day
TD50 (mouse, strain B6C3F1, females, in feed, site: liver, lesion: hepatocellular carcinoma, dosed 103 weeks, study length 105 weeks): 115 mg/kg/day
TD50 (mouse, strain B6C3F1, females, in feed, site: lung, lesion: alveolar/bronchiolar adenoma + alveolar/bronchiolar carcinoma, dosed 103 weeks, study length 105 weeks): 331 mg/kg/day
TD50 (mouse, strain B6C3F1, females, in feed, site: thyroid gland, lesion: c-cell adenoma + c-cell carcinoma, dosed 103 weeks, study length 105 weeks): 936 mg/kg/day
TD50 (mouse, strain B6C3F1, females, in feed, site: thyroid gland, lesion: c-cell carcinoma, dosed 103 weeks, study length 105 weeks): 1320 mg/kg/day
TD50 (mouse, strain B6C3F1, females, in feed, site: thyroid gland, lesion: follicular-cell adenoma + papillary cystadenoma, NOS + papillary adenoma, dosed 103 weeks, study length 105 weeks): 327 mg/kg/day
TD50 (mouse, strain B6C3F1, males, in feed, site: any site (literature study), lesion: several types, types named in the paper, dosed 103 weeks, study length 105 weeks): 583 mg/kg/day
TD50 (mouse, strain B6C3F1, males, in feed, site: liver, lesion: hepatocellular adenoma + hepatocellular carcinoma + neoplastic nodule, dosed 103 weeks, study length 105 weeks): 1640 mg/kg/day
TD50 (mouse, strain B6C3F1, males, in feed, site: thyroid gland, lesion: c-cell adenoma + c-cell carcinoma + follicular-cell adenoma + papillary cystadenoma, NOS + papillary adenoma, dosed 103 weeks, study length 105 weeks): 217 mg/kg/day
TD50 (mouse, strain B6C3F1, males, in feed, site: thyroid gland, lesion: c-cell adenoma + c-cell carcinoma, dosed 103 weeks, study length 105 weeks): 1260 mg/kg/day
TD50 (mouse, strain B6C3F1, males, in feed, site: thyroid gland, lesion: c-cell carcinoma, dosed 103 weeks, study length 105 weeks): 1910 mg/kg/day
TD50 (mouse, strain B6C3F1, males, in feed, site: thyroid gland, lesion: follicular-cell adenoma + papillary cystadenoma, NOS + papillary adenoma, dosed 103 weeks, study length 105 weeks): 276 mg/kg/day
TD50 (rat, strain Fischer 344, females, in feed, site: any site (literature study), lesion: several types, types named in the paper, dosed 103 weeks, study length 106 weeks): 55.8 mg/kg/day
TD50 (rat, strain Fischer 344, females, in feed, site: clitoral gland + uterus, lesion: adenoma, NOS + carcinoma, NOS + endometrial stromal polyp, dosed 103 weeks, study length 106 weeks): 50.8 mg/kg/day
TD50 (rat, strain Fischer 344, females, in feed, site: clitoral gland, lesion: adenoma, NOS + carcinoma, NOS, dosed 103 weeks, study length 106 weeks): 137 mg/kg/day
TD50 (rat, strain Fischer 344, females, in feed, site: liver, lesion: hepatocellular adenoma + hepatocellular carcinoma + neoplastic nodule, dosed 103 weeks, study length 106 weeks): 236 mg/kg/day
TD50 (rat, strain Fischer 344, females, in feed, site: thyroid gland, lesion: c-cell adenoma + c-cell carcinoma, dosed 103 weeks, study length 106 weeks): 57.6 mg/kg/day
TD50 (rat, strain Fischer 344, females, in feed, site: uterus, lesion: endometrial stromal polyp, dosed 103 weeks, study length 106 weeks): 69.6 mg/kg/day
TD50 (rat, strain Fischer 344, males, in feed, site: any site (literature study), lesion: several types, types named in the paper, dosed 103 weeks, study length 106 weeks): 48.1 mg/kg/day (inactive)
TD50 (rat, strain Fischer 344, males, in feed, site: liver, lesion: hepatocellular adenoma + hepatocellular carcinoma + neoplastic nodule, dosed 103 weeks, study length 106 weeks): 1040 mg/kg/day

O=[N+]([O-])c1ccc(Nc2ccc(Nc3ccccc3)c(S(=O)(=O)O)c2)c([N+](=O)[O-])c1
TD50 (mouse, strain B6C3F1, females, by gavage, site: liver, lesion: hepatocellular adenoma + hepatocellular carcinoma + neoplastic nodule, dosed 103 weeks, study length 104 weeks): 7550 mg/kg/day
TD50 (mouse, strain B6C3F1, females, by gavage, site: lung, lesion: alveolar/bronchiolar adenoma + alveolar/bronchiolar carcinoma, dosed 103 weeks, study length 104 weeks): 11600 mg/kg/day
TD50 (mouse, strain B6C3F1, females, by gavage, site: lung, lesion: alveolar/bronchiolar adenoma, dosed 103 weeks, study length 104 weeks): 2590 mg/kg/day (inactive)
TD50 (mouse, strain B6C3F1, males, by gavage, site: any site (literature study), lesion: several types, types named in the paper, dosed 103 weeks, study length 104 weeks): 372 mg/kg/day
TD50 (mouse, strain B6C3F1, males, by gavage, site: liver, lesion: hepatocellular carcinoma, dosed 103 weeks, study length 104 weeks): 184 mg/kg/day (inactive)
TD50 (mouse, strain B6C3F1, males, by gavage, site: lung, lesion: alveolar/bronchiolar adenoma + alveolar/bronchiolar carcinoma, dosed 103 weeks, study length 104 weeks): 5860 mg/kg/day
TD50 [1]: 361 mg/kg/day
TD50 (rat, strain Fischer 344, females, by gavage, site: kidney, lesion: transitional-cell carcinoma, dosed 103 weeks, study length 104 weeks): 1710 mg/kg/day
TD50 (rat, strain Fischer 344, females, by gavage, site: liver, lesion: hepatocellular adenoma + hepatocellular carcinoma + neoplastic nodule, dosed 103 weeks, study length 104 weeks): 5090 mg/kg/day
TD50 (rat, strain Fischer 344, males, by gavage, site: any site (literature study), lesion: several types, types named in the paper, dosed 100 weeks, study length 104 weeks): 270 mg/kg/day (inactive)

Cc1cc(Cl)ccc1N
TD50 (mouse, strain B6C3F1, females, in feed, site: all sites, lesion: hemangioma + hemangiosarcoma, dosed 95 weeks, study length 99 weeks): 40 mg/kg/day
TD50 (mouse, strain B6C3F1, females, in feed, site: all sites, lesion: hemangiosarcoma, dosed 95 weeks, study length 99 weeks): 42.3 mg/kg/day
TD50 (mouse, strain B6C3F1, females, in feed, site: any site (literature study), lesion: several types, types named in the paper, dosed 95 weeks, study length 99 weeks): 38.8 mg/kg/day
TD50 (mouse, strain B6C3F1, females, in feed, site: liver, lesion: hepatocellular adenoma + hepatocellular carcinoma + neoplastic nodule, dosed 95 weeks, study length 99 weeks): 754 mg/kg/day
TD50 (mouse, strain B6C3F1, females, in feed, site: lung, lesion: alveolar/bronchiolar adenoma + alveolar/bronchiolar carcinoma, dosed 95 weeks, study length 99 weeks): 798 mg/kg/day
TD50 (mouse, strain B6C3F1, males, in feed, site: all sites, lesion: hemangioma + hemangiosarcoma, dosed 99 weeks, study length 99 weeks): 743 mg/kg/day
TD50 (mouse, strain B6C3F1, males, in feed, site: all sites, lesion: hemangiosarcoma, dosed 99 weeks, study length 99 weeks): 911 mg/kg/day
TD50 (mouse, strain B6C3F1, males, in feed, site: any site (literature study), lesion: several types, types named in the paper, dosed 99 weeks, study length 99 weeks): 537 mg/kg/day
TD50 (mouse, strain B6C3F1, males, in feed, site: liver, lesion: hepatocellular adenoma + hepatocellular carcinoma + neoplastic nodule, dosed 99 weeks, study length 99 weeks): 3260 mg/kg/day
TD50 (mouse, strain CD-1 HaM/ICR, females, in feed, site: all sites, lesion: all vascular tumors, dosed 51 weeks, study length 60 weeks): 15.7 mg/kg/day and 18.4 mg/kg/day
TD50 (mouse, strain CD-1 HaM/ICR, females, in feed, site: any site (literature study), lesion: several types, types named in the paper, dosed 51 weeks, study length 60 weeks): 15.6 mg/kg/day
TD50 (mouse, strain CD-1 HaM/ICR, females, in feed, site: liver, lesion: several types, types named in the paper, dosed 51 weeks, study length 60 weeks): 139 mg/kg/day (inactive)
TD50 (mouse, strain CD-1 HaM/ICR, females, in feed, site: lung, lesion: several types, types named in the paper, dosed 51 weeks, study length 60 weeks): 153 mg/kg/day (inactive)
TD50 (mouse, strain CD-1 HaM/ICR, males, in feed, site: all sites, lesion: all vascular tumors, dosed 55 weeks, study length 60 weeks): 15.4 mg/kg/day
TD50 (mouse, strain CD-1 HaM/ICR, males, in feed, site: any site (literature study), lesion: several types, types named in the paper, dosed 55 weeks, study length 60 weeks): 7.72 mg/kg/day
TD50 (mouse, strain CD-1 HaM/ICR, males, in feed, site: liver, lesion: several types, types named in the paper, dosed 55 weeks, study length 60 weeks): 95.7 mg/kg/day (inactive)
TD50 (mouse, strain CD-1 HaM/ICR, males, in feed, site: lung, lesion: several types, types named in the paper, dosed 55 weeks, study length 60 weeks): 8.85 mg/kg/day (inactive)
TD50 (rat, strain Charles River CD (Sprague-Dawley), males, in feed, site: any site (literature study), lesion: several types, types named in the paper, dosed 77 weeks, study length 98 weeks): 24.9 mg/kg/day (inactive)
TD50 (rat, strain Charles River CD (Sprague-Dawley), males, in feed, site: liver, lesion: several types, types named in the paper, dosed 77 weeks, study length 98 weeks): 123 mg/kg/day (inactive)
carcinogen call (rat, strain Fischer 344, females, in feed, site: any site (literature study), lesion: several types, types named in the paper, dosed 107 weeks, study length 107 weeks): negative (inactive)
TD50 (rat, strain Fischer 344, males, in feed, site: liver, lesion: hepatocellular adenoma + hepatocellular carcinoma + neoplastic nodule, dosed 107 weeks, study length 107 weeks): 6180 mg/kg/day
TD50 (rat, strain Fischer 344, males, in feed, site: pituitary gland, lesion: chromophobe adenoma, dosed 107 weeks, study length 107 weeks): 576 mg/kg/day (inactive)

Oc1cccc(O)c1
TD50 (mouse, strain B6C3F1, females, by gavage, site: any site (literature study), lesion: several types, types named in the paper, dosed 104 weeks, study length 104 weeks): 1880 mg/kg/day (inactive)
TD50 (mouse, strain B6C3F1, females, by gavage, site: liver, lesion: hepatocellular adenoma + hepatocellular carcinoma + neoplastic nodule, dosed 104 weeks, study length 104 weeks): 1560 mg/kg/day
TD50 (mouse, strain B6C3F1, females, by gavage, site: lung, lesion: alveolar/bronchiolar adenoma + alveolar/bronchiolar carcinoma, dosed 104 weeks, study length 104 weeks): 1350 mg/kg/day
carcinogen call (mouse, strain B6C3F1, males, by gavage, site: any site (literature study), lesion: several types, types named in the paper, dosed 104 weeks, study length 104 weeks): negative (inactive)
TD50 (mouse, strain B6C3F1, males, by gavage, site: lung, lesion: alveolar/bronchiolar adenoma + alveolar/bronchiolar carcinoma, dosed 104 weeks, study length 104 weeks): 6800 mg/kg/day
TD50 [1]: 219 mg/kg/day (inactive)
TD50 (rat, strain Fischer 344, males, by gavage, site: any site (literature study), lesion: several types, types named in the paper, dosed 103 weeks, study length 104 weeks): 213 mg/kg/day
TD50 (rat, strain Fischer 344, males, by gavage, site: testis, lesion: interstitial-cell adenoma, dosed 103 weeks, study length 104 weeks): 84 mg/kg/day (inactive)
